From patent US8895587B2, “Insecticidal compounds based on arylthioacetamide derivatives” (Syngenta Participations AG, priority 2011, dated 2014)

Experiments:
Assay type in all cases: in vivo
[1] = tested on: Thrips tabaci; test: Thrips tabaci (onion thrips) leaf disc test; settings: foliar, 168 h, application rate 200 ppm, sunflower leaf discs, 7 days
Procedure: Sunflower leaf discs were placed on agar in a 24-well microtiter plate and sprayed with test solutions at an application rate of 200 ppm. After drying, the leaf discs were infested with a thrips population of mixed ages. After an incubation period of 7 days, samples were checked for mortality.

[2] = tested on: Plutella xylostella; test: Plutella xylostella (diamond back moth) larval test on artificial diet; settings: 144 h, application rate 200 ppm (concentration in well 18 ppm), L2 larvae on artificial diet, 6 days
Procedure: 24-well microtiter plate (MTP) with artificial diet was treated with test solutions at an application rate of 200 ppm (concentration in well 18 ppm) by pipetting. After drying, the MTP's were infested with L2 larvae (7-12 per well). After an incubation period of 6 days, samples were checked for larval mortality and growth regulation.

[3] = tested on: Spodoptera littoralis; test: Spodoptera littoralis (Egyptian cotton leafworm) leaf disc test; settings: foliar, 72 h, application rate 200 ppm, cotton leaf discs, L1 larvae, mortality, feeding behavior, growth regulation 3 DAT
Description: Spodoptera littoralis (Egyptian Cotton Leafworm): Cotton leaf discs were placed on agar in a 24-well microtiter plate and sprayed with test solutions at an application rate of 200 ppm. After drying, the leaf discs were infested with 5 L1 larvae. The samples were checked for mortality, feeding behavior, and growth regulation 3 days after treatment (DAT).

[4] = tested on: Tetranychus urticae; test: Tetranychus urticae (two-spotted spider mite) leaf disc test; settings: foliar, 192 h, application rate 200 ppm, bean leaf discs, 8 days
Description: Bean leaf discs on agar in 24-well microtiter plates were sprayed with test solutions at an application rate of 200 ppm. After drying, the leaf discs are infested with mite populations of mixed ages. 8 days later, discs are checked for egg mortality, larval mortality, and adult mortality.

[5] = tested on: Heliothis virescens; test: Heliothis virescens (tobacco budworm) egg/larval test on artificial diet; settings: 96 h, application rate 200 ppm (concentration in well 18 ppm), eggs on artificial diet, 4 days
Procedure: Eggs (0-24 h old) were placed in 24-well microtiter plate on artificial diet and treated with test solutions at an application rate of 200 ppm (concentration in well 18 ppm) by pipetting. After an incubation period of 4 days, samples were checked for egg mortality, larval mortality, and growth regulation.

[6] = tested on: Diabrotica balteata; test: Diabrotica balteata (corn root worm) larval test on artificial diet; settings: 120 h, application rate 200 ppm (concentration in well 18 ppm), L2 larvae on artificial diet, 5 days
Procedure: Diabrotica balteata (Corn Root Worm): A 24-well microtiter plate (MTP) with artificial diet was treated with test solutions at an application rate of 200 ppm (concentration in well 18 ppm) by pipetting. After drying, the MTP's were infested with L2 larvae (6-10 per well). After an incubation period of 5 days, samples were checked for larval mortality and growth regulation.

[7] = tested on: Myzus persicae; test: Myzus persicae (green peach aphid), systemic test; settings: 144 h, application rate 12.5 ppm, roots of pea seedlings in test solution, 6 days
Description: Myzus persicae (Green peach aphid), systemic test: Roots of pea seedlings, infested with an aphid population of mixed ages, are placed directly in the test solutions at an application rate of 12.5 ppm. 6 days after introduction, samples are checked for mortality and special effects on the plant. The following compounds gave at least 80% control of Myzus persicae: […]

O=C(CSc1ccc(C2=NO[C@@](c3cc(Cl)cc(Cl)c3)(C(F)(F)F)C2)cc1F)NCC(F)(F)F [Compound C63, 2-[4-[(5S)-5-(3,5-dichlorophenyl)-5-(trifluoromethyl)-4H-isoxazol-3-yl]-2-fluoro-phenyl]sulfanyl-N-(2,2,2-trifluoroethyl)acetamide]
≥ 80%: pest or weed control at 200 ppm [1] | pest or weed control at 200 ppm [2] | pest or weed control at 200 ppm [3] | pest or weed control at 200 ppm [4] | pest or weed control at 200 ppm [5] | pest or weed control at 200 ppm [6] | pest or weed control at 12.5 ppm [7]

O=C(CSc1ccc(C2=NO[C@@](c3cc(Cl)c(Cl)c(Cl)c3)(C(F)(F)F)C2)cc1Cl)NCC(F)(F)F [Compound D1, 2-[2-chloro-4-[(5S)-5-(3,4,5-trichlorophenyl)-5-(trifluoromethyl)-4H-isoxazol-3-yl]phenyl]sulfanyl-N-(2,2,2-trifluoroethyl)acetamide]
≥ 80%: pest or weed control at 200 ppm [1] | pest or weed control at 200 ppm [2] | pest or weed control at 200 ppm [3] | pest or weed control at 200 ppm [4] | pest or weed control at 200 ppm [5] | pest or weed control at 200 ppm [6] | pest or weed control at 12.5 ppm [7]

Cc1cc(C2=NOC(c3cc(Cl)cc(Cl)c3)(C(F)(F)F)C2)cnc1SCC(=O)NC1CC1 (centres unmarked) [Compound F1, N-cyclopropyl-2-[[5-[5-(3,5-dichlorophenyl)-5-(trifluoromethyl)-4H-isoxazol-3-yl]-3-methyl-2-pyridyl]sulfanyl]acetamide]
≥ 80%: pest or weed control at 200 ppm [2] | pest or weed control at 200 ppm [3] | pest or weed control at 200 ppm [4] | pest or weed control at 200 ppm [5] | pest or weed control at 200 ppm [6]

Cc1cc(C2=NO[C@@](c3cc(Cl)cc(Cl)c3)(C(F)(F)F)C2)ccc1SCC(=O)NCC(F)(F)F [Compound C4, 2-{4-[(S)-5-(3,5-Dichloro-phenyl)-5-trifluoromethyl-4,5-dihydro-isoxazol-3-yl]-2-methyl-phenylsulfanyl}-N-(2,2,2-trifluoro-ethyl)-acetamide]
≥ 80%: pest or weed control at 200 ppm [3] | pest or weed control at 200 ppm [6]

O=C(CS(=O)(=O)c1ccc(C2=NCC(c3cc(Cl)cc(Cl)c3)(C(F)(F)F)C2)cc1Cl)NCC(F)(F)F (centres unmarked) [Compound B3, 2-{2-chloro-4-[4-(3,5-Dichloro-phenyl)-4-trifluoromethyl-4,5-dihydro-3H-pyrrol-2-yl]-benzenesulfonyl}-N-(2,2,2-trifluoro-ethyl)-acetamide]
≥ 80%: pest or weed control at 200 ppm [1] | pest or weed control at 200 ppm [2] | pest or weed control at 200 ppm [3] | pest or weed control at 200 ppm [4] | pest or weed control at 200 ppm [5] | pest or weed control at 200 ppm [6] | pest or weed control at 12.5 ppm [7]

O=C(CSc1ccc(C2=NOC(c3cc(Cl)cc(Cl)c3)(C(F)(F)F)C2)c2ccccc12)NCC(F)(F)F (centres unmarked) [Compound G1, 2-[[4-[5-(3,5-dichlorophenyl)-5-(trifluoromethyl)-4H-isoxazol-3-yl]-1-naphthyl]sulfanyl]-N-(2,2,2-trifluoroethyl)acetamide]
≥ 80%: pest or weed control at 200 ppm [1] | pest or weed control at 200 ppm [2] | pest or weed control at 200 ppm [3] | pest or weed control at 200 ppm [4] | pest or weed control at 200 ppm [5] | pest or weed control at 200 ppm [6] | pest or weed control at 12.5 ppm [7]

Cc1cc(C2=NOC(c3cc(Cl)cc(Cl)c3)(C(F)(F)F)C2)ncc1SCC(=O)NC1CC1 (centres unmarked) [Compound F2, N-cyclopropyl-2-[[6-[5-(3,5-dichlorophenyl)-5-(trifluoromethyl)-4H-isoxazol-3-yl]-4-methyl-3-pyridyl]sulfanyl]acetamide]
≥ 80%: pest or weed control at 200 ppm [2] | pest or weed control at 200 ppm [3] | pest or weed control at 200 ppm [5] | pest or weed control at 200 ppm [6] | pest or weed control at 12.5 ppm [7]

O=C(CSc1ccc(C2=NO[C@@](c3cc(Cl)c(Cl)c(Cl)c3)(C(F)(F)F)C2)cc1Cl)NC1CC1 [Compound D4, 2-[2-chloro-4-[(5S)-5-(3,4,5-trichlorophenyl)-5-(trifluoromethyl)-4H-isoxazol-3-yl]phenyl]sulfanyl-N-cyclopropyl-acetamide]
≥ 80%: pest or weed control at 200 ppm [1] | pest or weed control at 200 ppm [2] | pest or weed control at 200 ppm [3] | pest or weed control at 200 ppm [4] | pest or weed control at 200 ppm [5] | pest or weed control at 200 ppm [6] | pest or weed control at 12.5 ppm [7]

O=C(C[S+]([O-])c1ccc(C2=NO[C@@](c3cc(Cl)c(Cl)c(Cl)c3)(C(F)(F)F)C2)cc1Cl)NCC(F)(F)F (stereo partly drawn) [Compound D2, 2-[2-chloro-4-[(5S)-5-(3,4,5-trichlorophenyl)-5-(trifluoromethyl)-4H-isoxazol-3-yl]phenyl]sulfinyl-N-(2,2,2-trifluoroethyl)acetamide]
≥ 80%: pest or weed control at 200 ppm [1] | pest or weed control at 200 ppm [2] | pest or weed control at 200 ppm [3] | pest or weed control at 200 ppm [4] | pest or weed control at 200 ppm [5] | pest or weed control at 200 ppm [6] | pest or weed control at 12.5 ppm [7]

O=C(CS(=O)(=O)c1ccc(C2=NO[C@@](c3cc(Cl)c(Cl)c(Cl)c3)(C(F)(F)F)C2)cc1Cl)NC1CC1 [Compound D6, 2-[2-chloro-4-[(5S)-5-(3,4,5-trichlorophenyl)-5-(trifluoromethyl)-4H-isoxazol-3-yl]phenyl]sulfonyl-N-cyclopropyl-acetamide]
≥ 80%: pest or weed control at 12.5 ppm [7]

N#CC1(NC(=O)CS(=O)(=O)c2ccc(C3=NOC(c4cc(Cl)cc(Cl)c4)(C(F)(F)F)C3)cc2Cl)CC1 (centres unmarked) [Compound A61, 2-[2-chloro-4-[5-(3,5-dichlorophenyl)-5-(trifluoromethyl)-4H-isoxazol-3-yl]phenyl]sulfonyl-N-(1-cyanocyclopropyl)acetamide]
≥ 80%: pest or weed control at 200 ppm [1] | pest or weed control at 200 ppm [2] | pest or weed control at 200 ppm [3] | pest or weed control at 200 ppm [4] | pest or weed control at 200 ppm [5] | pest or weed control at 200 ppm [6]

O=C(C[S+]([O-])c1ccc(C2=NO[C@@](c3cc(Cl)c(Cl)c(Cl)c3)(C(F)(F)F)C2)cc1Cl)NC1CC1 (stereo partly drawn) [Compound D5, 2-[2-chloro-4-[(5S)-5-(3,4,5-trichlorophenyl)-5-(trifluoromethyl)-4H-isoxazol-3-yl]phenyl]sulfinyl-N-cyclopropyl-acetamide]
≥ 80%: pest or weed control at 12.5 ppm [7]
